The GI50 is the concentration at which growth is held to half of that of the control.

Values after ≈ are worked out from the molar mass of the structure shown. Where two headings read alike, the source gives them in different places.

The text below walks through data of paper PMC5563081, “Modulating Protein-Protein Interactions of the Mitotic Polo-like Kinases to Target Mutant KRAS” (Cell Chemical Biology, 2017).

A short description of one series: Solubility in 5% DMSO. Type of series: physicochemical. Conditions: aqueous with cosolvent or surfactant or cyclodextrin, read-out: soluble at up to.
The subject of a further series is HeLa cells. The series can be described thus: Mitotic index assay in HeLa cells. The series is classed as cell-based, human. The conditions noted are these: for EC50: Homo sapiens. Here is the method: Cells were plated at 10 000/well in 96-well plates and incubated overnight. The following day compound stocks in DMSO were diluted in medium then added to cells with a maximum final DMSO concentration on cells of 0.2%. […] Cells were permeabilised with 0.1% Triton X-100 then incubated with anti-phospho-histone H3 (Ser10) antibody (Abcam ab5176). The cells were washed with PBS then incubated with AlexaFluor 488 labelled goat anti-rabbit IgG (Invitrogen A11034) in the presence of 4ug/ml Hoechst 33342 (Invitrogen H3570). Cells were washed in PBS then imaged on an Arrayscan VTi HCS instrument (Thermo Fisher) using the Target Activation V4 Bioapplication. A user-defined threshold was applied to identify mitotic cells based on the intensity of phospho-histone H3 staining.

For another series, the system named is SW48 KRAS G12D cells. Kind of series: Cell viability (SRB), SW48 KRAS G12D. Conditions: Homo sapiens. Type of series: cell-based. Here is the method: SW48 Parental, SW48 G12D, Panc-1, HPAF-II, Panc 02.03 and Panc 05.04 cell lines were seeded overnight at 5000 cells per well in a 96 well plate in recommended media (ATCC). Compounds were added the following day and viability was measured at 72h using the sulforhodamine B (SRB) colorimetric assay as follows. Cells were fixed by replacing media with 1% v/v Trichloroacetic Acid (TCA) (Sigma-Aldrich) at 4°C and incubated for 1h also at 4°C. Wells were washed thoroughly with copious amounts of deionised water before staining with Sulforhodamine B (SRB) (Sigma-Aldrich) solution (0.057% w/v in 1% v/v Acetic Acid (VWR)) for 30 min. Stain was aspirated and wells washed with several changes of 1% v/v Acetic Acid until unbound stain was removed, before air-drying. Bound stain was solubilized with 100μl / well 10mM Tris (pH 8.0) (Trizma Base (121.1) Sigma-Aldrich) with agitation for 10 min. Fluorescence intensity was recorded at Ex540nm / Em590nm using a BMG Pherastar Plus plate reader ([Vichai and Kirtikara, 2006]).

Series [1] deals with T1, NanoLuc-PLK4 fusion protein (Homo sapiens, UniProt O00444).
T1 construct: NanoLuc fused to the N-termini of full-length human PLK1, PLK2, PLK3, PLK4 or p38α MAPK; expressed in transfected cells; host or cells: HeLa, transient, digitonin-permeabilised
T1 sequence (O00444 1-970): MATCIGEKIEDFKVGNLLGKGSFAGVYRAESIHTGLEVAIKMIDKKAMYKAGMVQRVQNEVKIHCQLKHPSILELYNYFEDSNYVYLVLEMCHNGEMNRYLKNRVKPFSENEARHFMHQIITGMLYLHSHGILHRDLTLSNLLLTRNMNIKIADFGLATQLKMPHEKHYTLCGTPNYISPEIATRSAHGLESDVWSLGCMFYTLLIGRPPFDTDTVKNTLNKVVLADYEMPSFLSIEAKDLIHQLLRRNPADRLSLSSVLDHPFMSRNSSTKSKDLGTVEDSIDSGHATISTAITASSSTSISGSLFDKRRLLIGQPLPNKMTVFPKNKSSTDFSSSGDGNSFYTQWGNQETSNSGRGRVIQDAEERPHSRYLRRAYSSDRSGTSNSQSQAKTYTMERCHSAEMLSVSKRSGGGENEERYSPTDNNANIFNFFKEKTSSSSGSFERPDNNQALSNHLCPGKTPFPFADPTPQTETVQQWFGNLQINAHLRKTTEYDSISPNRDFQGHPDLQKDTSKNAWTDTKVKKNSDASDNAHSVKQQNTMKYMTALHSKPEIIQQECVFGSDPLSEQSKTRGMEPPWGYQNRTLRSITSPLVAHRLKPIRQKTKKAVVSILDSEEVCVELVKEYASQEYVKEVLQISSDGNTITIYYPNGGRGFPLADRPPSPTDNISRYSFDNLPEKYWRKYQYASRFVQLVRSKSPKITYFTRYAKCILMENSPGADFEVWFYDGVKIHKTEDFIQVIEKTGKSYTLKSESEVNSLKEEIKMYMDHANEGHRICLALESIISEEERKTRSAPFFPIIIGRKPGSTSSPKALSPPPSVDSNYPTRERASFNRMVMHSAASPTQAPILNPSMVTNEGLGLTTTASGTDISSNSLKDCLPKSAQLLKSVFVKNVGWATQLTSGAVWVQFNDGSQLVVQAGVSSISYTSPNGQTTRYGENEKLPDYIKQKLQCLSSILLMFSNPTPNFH
Kind of series: NanoLuc thermal shift assay. The conditions noted are these: compound at 100 μM. The series is classed as cell-based. The method, then: (§1) HeLa cells were transfected with plasmids encoding NanoLuc fused to the N-termini of full-length human PLK1, PLK2, PLK3, PLK4 or p38α MAPK. Twenty-four h after transfection, the thermal stability of the fusion proteins was tested using a modified version of the assay protocol supplied by Promega. Briefly, cells were harvested by tyrpsinisation and centrifugation, counted, and resuspended to 200,000 cells/ml in 3mls of serum-free OptiMEM media. Cells were then permeabilised using with 50ug/ml digitonin in DMSO for 5 min and incubated with test compounds at 100uM, plus protease inhibitor cocktail (Promega G6521), in a final concentration of 5% DMSO for 1 h at 37°C. After incubation, 100 μl/well of cells were aliquoted into a 96-well, thin-walled PCR plate and then heated for 3 minutes using a pre-warmed MJ Tetrad DNA Engine set to run a temperature gradient of 42 to 66°C. The plates were then cooled to room temperature for 10 min, and then 80μl of each sample was transferred to a white-walled 96-well Nunc plate before NanoBRET™ NanoGlo Substrate diluted in Opti-MEM was added. NanoLuc enzyme activity was read out within 10 min using a BMG Clariostar plate reader.
(§2) Nanoluciferase enzyme activity of PLK1- or PLK4-Nanoluc fusion protein was analysed using GraphPad Prism. Data were normalised as follows: (treatment A RLU value at X°C temp/treatment A RLU value at 42°C temp) x 100. Using the Boltzmann sigmoidal equation, a curve was then fitted to the normalised data. From this non-linear fit, a V50 value was generated, which in this context represents the aggregation onset temperature (Tagg), at which 50% of the PLK1- or PLK4-Nanoluc fusion protein has aggregated.

For series [2], the target named is T2, NanoLuc-PLK1 fusion protein (Homo sapiens, UniProt P53350).
T2 construct: NanoLuc fused to the N-termini of full-length human PLK1, PLK2, PLK3, PLK4 or p38α MAPK; expressed in transfected cells; host or cells: HeLa, transient, digitonin-permeabilised
The series can be described thus: NanoLuc thermal shift assay. The series is classed as cell-based. The conditions noted are these: compound at 100 μM. The method, then: as §1, §2

Setting [3] is: HeLa, Figure 5A, read-out: MI EC50 (cellular assay for mitotic arrest).

T2 sequence (P53350 whole entry, the tested form may be a part): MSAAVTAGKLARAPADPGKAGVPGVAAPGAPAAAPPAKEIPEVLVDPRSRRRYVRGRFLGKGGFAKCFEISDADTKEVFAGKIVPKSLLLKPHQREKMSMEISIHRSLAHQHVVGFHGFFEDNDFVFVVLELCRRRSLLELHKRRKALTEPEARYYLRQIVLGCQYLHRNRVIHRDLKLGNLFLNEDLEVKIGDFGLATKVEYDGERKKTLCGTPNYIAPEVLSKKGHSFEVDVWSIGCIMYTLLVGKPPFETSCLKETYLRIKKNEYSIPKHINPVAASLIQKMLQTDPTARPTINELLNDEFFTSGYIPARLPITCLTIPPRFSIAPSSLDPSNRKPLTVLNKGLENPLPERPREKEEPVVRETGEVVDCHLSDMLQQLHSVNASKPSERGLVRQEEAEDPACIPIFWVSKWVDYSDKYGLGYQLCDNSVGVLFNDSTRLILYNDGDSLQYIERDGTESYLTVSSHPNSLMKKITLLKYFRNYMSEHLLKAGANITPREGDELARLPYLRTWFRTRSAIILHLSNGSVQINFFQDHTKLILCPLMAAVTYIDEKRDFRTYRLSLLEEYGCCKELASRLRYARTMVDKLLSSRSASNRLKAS

`O=C(O)CCc1ccc(-c2ccc(Br)cc2)n1-c1ccccc1C(F)(F)F` [Poloppin]: in the series “Solubility in 5% DMSO”, the solubility is no more than 1000 µM. Moreover, the “EC50, mitotic index assay” value in the series on HeLa cells (HeLa cells treated for 16 hr, Figure 5B) is 14600 nM. Also, the EC50 in the series on HeLa cells (setting [3]) stood at 14100 nM. In the series on SW48 KRAS G12D cells (SW48), this compound registered a GI50 of 5300 ± 1030 nM. Moreover, in series [1], the “thermal stability of NanoLuc-PLK4” value is given as “increases the thermal stability”. Moreover, in series [2], the “thermal stability of NanoLuc-PLK1” value is given as “increases the thermal stability”.

Consider `CN(C)CCNC(=O)c1ccc(-c2ccc(-c3ccc(Cl)cc3)n2-c2ccccc2C(F)(F)F)cc1` [Poloppin-II], for which the solubility in the series “Solubility in 5% DMSO” was roughly 100 µM (≈ 51.2 µg/mL). Further, the EC50 with HeLa cells (setting [3]) amounted to 69 nM; with HeLa cells (HeLa cells, Figure 5B, read-out: half maximal effective concentration, cellular assay for mitotic arrest) it was 61 nM. In addition, the GI50 in the series with SW48 KRAS G12D cells (SW48 G12D, 72 hr, Figure 5D, read-out: GI50) turned out to be 11.5 ± 1.09 nM. Moreover, in series [1], the “thermal stability of NanoLuc-PLK4” value is “engages”. Besides, the “thermal stability of NanoLuc-PLK1” value in series [2] is recorded as “engages”.
